Test results as given in patent US11986532B2 (Arvinas Operations, Inc., priority 2021, dated 2024).
Read-outs that look alike come from different tables or passages of the source.

Target: T1, BCL6 (Homo sapiens, UniProt P41182)
T1 construct: endogenous in cells; host or cells: T47D breast cancer epithelial cells
Assay: Immunofluorescence protocol for high content imaging of BCL6 (degradation) in T47D cells, 3 days compound treatment
Assay type: cell-based
Conditions: for Dmax: read-out: Mean Dmax (%)** category; for DC50: read-out: Mean DC50 (nM)* category
Procedure, shortened: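 T47D cells in RPMI1640-10% FBS were treated with an 11-point 3-fold dilution series (final top 0.1 or 1 μM) for 3 days at 37° C. After PFA fixation and Triton permeabilization, cells were immunostained with rabbit anti-BCL6 (1:300, overnight 4° C), Alexa-488 secondary, CellMask-647 and Hoechst, then imaged at 10×, 4 fields/well.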

[1] = T47D cells, 3 days compound treatment

Compound | Dmax (T47D) [%] | DC50 [nM] | DC50 [1] [nM] | Dmax [1] [%]
CNC(=O)COc1cc2cc(Nc3nc(N4CCC(O[C@H]5C[C@H](N6CC[C@H](c7ccc8c(c7F)CN(C7CCC(=O)NC7=O)C8=O)[C@H](O)C6)C5)CC4)ncc3Cl)ccc2n(C(C)C)c1=O (stereo partly drawn) [Compound 282, 2-({6-[(5-chloro-2-{4-[(1r,3r)-3-[(3S,4R)-4-[2-(2,6-dioxopiperidin-3-yl)-4-fluoro-1-oxo-2,3-dihydro-1H-isoindol-5-yl]-3-hydroxypiperidin-1-yl]cyclobutoxy]piperidin-1-yl}pyrimidin-4-yl)amino]-2-oxo-1-(propan-2-yl)-1,2-dihydroquinolin-3-yl}oxy)-N-methylacetamide] | 50 to 70 | < 10 | – | –
CNC(=O)COc1cc2cc(Nc3nc(N4CCC(OC5CCC6(CC5)CN(c5cc7c(cc5F)C(=O)N(C5CCC(=O)NC5=O)C7)C6)CC4)ncc3Cl)ccc2n(C(C)C)c1=O (stereo not shown) [Compound 123, 2-{[6-({5-chloro-2-[4-({2-[2-(2,6-dioxopiperidin-3-yl)-6-fluoro-1-oxo-2,3-dihydro-1H-isoindol-5-yl]-2-azaspiro [3.5]nonan-7-yl}oxy)piperidin-1-yl]pyrimidin-4-yl}amino)-2-oxo-1-(propan-2-yl)-1,2-dihydroquinolin-3-yl]oxy}-N-methylacetamide] | – | – | < 10 | ≥ 70
CNC(=O)COc1cc2cc(Nc3nc(N4CCC(O[C@H]5CC[C@H](N6CCC(c7ccc8c(c7)C(=O)N(C7CCC(=O)NC7=O)C8=O)CC6)CC5)CC4)ncc3Cl)ccc2n(C(C)C)c1=O (stereo partly shown) [Compound 117, 2-[(6-{[5-chloro-2-(4-{[(1r,4r)-4-{4-[2-(2,6-dioxopiperidin-3-yl)-1,3-dioxo-2,3-dihydro-1H-isoindol-5-yl]piperidin-1-yl}cyclohexyl]oxy}piperidin-1-yl)pyrimidin-4-yl]amino}-2-oxo-1-(propan-2-yl)-1,2-dihydroquinolin-3-yl)oxy]-N-methylacetamide] | – | – | < 10 | 50 to 70
CNC(=O)COc1cc2cc(Nc3nc(N4CCC(CN5CC6(CCN(c7cccc8c7CN(C7CCC(=O)NC7=O)C8=O)CC6(F)F)C5)CC4)ncc3Cl)ccc2n(C(C)C)c1=O (stereo not shown) [Compound 125, 2-{[6-({5-chloro-2-[4-({7-[2-(2,6-dioxopiperidin-3-yl)-1-oxo-2,3-dihydro-1H-isoindol-4-yl]-5,5-difluoro-2,7-diazaspiro[3.5]nonan-2-yl}methyl)piperidin-1-yl]pyrimidin-4-yl}amino)-2-oxo-1-(propan-2-yl)-1,2-dihydroquinolin-3-yl]oxy}-N-methylacetamide] | – | – | < 10 | 50 to 70
CNC(=O)COc1cc2cc(Nc3nc(N4CCC(O[C@H]5C[C@H](N6CCN(c7ccc8c(c7F)CN([C@@H]7CCC(=O)NC7=O)C8=O)[C@H](C)C6)C5)CC4)ncc3Cl)ccc2n(C(C)C)c1=O [Compound 395, 2-({6-[(5-chloro-2-{4-[(1r,3r)-3-[(3R)-4-{2-[(3R)-2,6-dioxopiperidin-3-yl]-4-fluoro-1-oxo-2,3-dihydro-1H-isoindol-5-yl}-3-methylpiperazin-1-yl]cyclobutoxy]piperidin-1-yl}pyrimidin-4-yl)amino]-2-oxo-1-(propan-2-yl)-1,2-dihydroquinolin-3-yl}oxy)-N-methylacetamide] | ≥ 70 | < 10 | – | –
CNC(=O)COc1cc2c(F)c(Nc3nc(N4CCC(F)(CN5CCC6(CC5)CN(c5ccc7c(c5F)CN(C5CCC(=O)NC5=O)C7=O)C6)CC4)ncc3Cl)ccc2n(C(C)C)c1=O (stereo not shown) [Compound 390, 2-{[6-({5-chloro-2-[4-({2-[2-(2,6-dioxopiperidin-3-yl)-4-fluoro-1-oxo-2,3-dihydro-1H-isoindol-5-yl]-2,7-diazaspiro[3.5]nonan-7-yl}methyl)-4-fluoropiperidin-1-yl]pyrimidin-4-yl}amino)-5-fluoro-2-oxo-1-(propan-2-yl)-1,2-dihydroquinolin-3-yl]oxy}-N-methylacetamide] | ≥ 70 | < 10 | – | –
CNC(=O)COc1cc2cc(Nc3nc(N4CCC(O[C@H]5C[C@H](N6CCC(c7ccc8c(c7OC)CN(C7CCC(=O)NC7=O)C8=O)CC6)C5)CC4)ncc3Cl)ccc2n(C(C)C)c1=O (stereo partly shown) [Compound 72, 2-[[6-[[5-chloro-2-[4-[3-[4-[2-(2,6-dioxo-3-piperidyl)-4-methoxy-1-oxo-isoindolin-5-yl]-1-piperidyl]cyclobutoxy]-1-piperidyl]pyrimidin-4-yl]amino]-1-isopropyl-2-oxo-3-quinolyl]oxy]-N-methyl-acetamide] | – | – | < 10 | 50 to 70
CNC(=O)COc1cc2cc(Nc3nc(N4CCN(CC5CCC6(CC5)CN(c5c(F)ccc7c5CN(C5CCC(=O)NC5=O)C7=O)C6)CC4)ncc3Cl)ccc2n(C(C)C)c1=O (stereo not shown) [Compound 314, 2-{[6-({5-chloro-2-[4-({2-[2-(2,6-dioxopiperidin-3-yl)-5-fluoro-1-oxo-2,3-dihydro-1H-isoindol-4-yl]-2-azaspiro[3.5]nonan-7-yl}methyl)piperazin-1-yl]pyrimidin-4-yl}amino)-2-oxo-1-(propan-2-yl)-1,2-dihydroquinolin-3-yl]oxy}-N-methylacetamide] | 50 to 70 | < 10 | – | –
CNC(=O)COc1cc2cc(Nc3nc(N4CCC5(CCN(CC6(F)CCN(c7cccc8c7C(=O)N(C7CCC(=O)NC7=O)C8=O)CC6)CC5)CC4)ncc3Cl)ccc2n(C(C)C)c1=O (stereo not shown) [Compound 63, 2-{[6-({5-chloro-2-[9-({1-[2-(2,6-dioxopiperidin-3-yl)-1,3-dioxo-2,3-dihydro-1H-isoindol-4-yl]-4-fluoropiperidin-4-yl}methyl)-3,9-diazaspiro[5.5]undecan-3-yl]pyrimidin-4-yl}amino)-2-oxo-1-(propan-2-yl)-1,2-dihydroquinolin-3-yl]oxy}-N-methylacetamide] | – | – | 10 to 50 | 50 to 70
CNC(=O)COc1cc2cc(Nc3nc(N4CCC(O[C@H]5CC[C@H](Oc6ccc7c(c6)C(=O)N(C6CCC(=O)NC6=O)C7=O)CC5)CC4)ncc3Cl)ccc2n(C(C)C)c1=O (stereo partly shown) [Compound 30, 2-[(6-{[5-chloro-2-(4-{[(1r,4r)-4-{[2-(2,6-dioxopiperidin-3-yl)-1,3-dioxo-2,3-dihydro-1H-isoindol-5-yl]oxy}cyclohexyl]oxy}piperidin-1-yl)pyrimidin-4-yl]amino}-2-oxo-1-(propan-2-yl)-1,2-dihydroquinolin-3-yl)oxy]-N-methylacetamide] | – | – | 10 to 50 | 50 to 70
CC[C@@H]1CN([C@H]2C[C@H](OC3CCN(c4ncc(Cl)c(Nc5ccc6c(c5)cc(OCC(=O)NC)c(=O)n6C(C)C)n4)CC3)C2)CCN1c1ccc2c(c1C)C(=O)N(C1CCC(=O)NC1=O)C2=O (stereo partly drawn) [Compound 287, 2-({6-[(5-chloro-2-{4-[(1r,3r)-3-[(3R)-4-[2-(2,6-dioxopiperidin-3-yl)-4-methyl-1,3-dioxo-2,3-dihydro-1H-isoindol-5-yl]-3-ethylpiperazin-1-yl]cyclobutoxy]piperidin-1-yl}pyrimidin-4-yl)amino]-2-oxo-1-(propan-2-yl)-1,2-dihydroquinolin-3-yl}oxy)-N-methylacetamide] | ≥ 70 | < 10 | – | –
